Results taken from patent publication US9212163B2, “Pesticidal compositions and processes related thereto” (Dow AgroSciences LLC, priority 2012, dated 2015).

Test system: Beet Armyworm (BAW) (Spodoptera exigua)
Assay: Bioassay on Beet Armyworm (BAW), 128-well diet tray assay
Type: in vivo
Conditions: Table 3: Assay Results Part 1
Description: Certain molecules disclosed in this document were tested against BAW, CEW and CL using procedures described in the following examples. In the reporting of the results, the “BAW & CEW & CL Rating Table” was used (See Table Section).
Bioassays on BAW (Spodoptera exigua)
Bioassays on BAW were conducted using a 128-well diet tray assay. One to five second instar BAW larvae were placed in each well (3 mL) of the diet tray that had been previously filled with 1 mL of artificial diet to which 50 μg/cm^2 of the test compound (dissolved in 50 μL of 90:10 acetone-water mixture) had been applied (to each of eight wells) and then allowed to dry. Trays were covered with a clear self-adhesive cover, and held at 25° C., 14:10 light-dark for five to seven days. Percent mortality was recorded for the larvae in each well; activity in the eight wells was then averaged. The results are indicated in the tables entitled “Table 3: Assay Results Part 1” and “Table 4: Assay Results Part 2” (See Table Section).

Row | Structure (SMILES) | BAW Rating
1 | N#Cc1cc(/C=C/C(c2cc(Cl)c(Cl)c(Cl)c2)C(F)(F)F)ccc1-n1cnc(NC(=O)C2CC2)n1 (stereo not shown) [DC43, (E)-N-(1-(2-Cyano-4-(4,4,4-trifluoro-3-(3,4,5-trichlorophenyl)but-1-en-1-yl)phenyl)-1H-1,2,4-triazol-3-yl)cyclopropanecarboxamide] | A (50-100)
2 | N#Cc1cc(/C=C/C(c2cc(Cl)c(Cl)c(Cl)c2)C(F)(F)F)ccc1-n1cnc([N+](=O)[O-])n1 (stereo not shown) [DC40, (E)-2-(3-Nitro-1H-1,2,4-triazol-1-yl)-5-(4,4,4-trifluoro-3-(3,4,5-trichlorophenyl)but-1-en-1-yl)benzonitrile] | A (50-100)
3 | Cc1cc(/C=C/C(c2cc(Cl)cc(Cl)c2)C(F)(F)F)ccc1C(=O)NC1CS(=O)(=O)C1 (stereo not shown) [AC13] | A (50-100)
4 | Cc1cc(/C=C/C(c2cc(Cl)c(Cl)c(Cl)c2)C(F)(F)F)ccc1C(=O)NCc1ccc(Cl)nc1 (stereo not shown) [AC22] | A (50-100)
5 | O=C(NCc1ccc(Cl)nc1)c1ccc(/C=C/C(c2cc(Cl)c(Cl)c(Cl)c2)C(F)(F)F)cc1Br (stereo not shown) [AC31] | A (50-100)
6 | COc1c(Cl)cc(C(/C=C/c2ccc(-n3cncn3)cc2)C(F)(F)F)cc1Cl (stereo not shown) [DC20] | A (50-100)
7 | O=C(NC1CSC1)c1ccc(/C=C/C(c2cc(Cl)c(Cl)c(Cl)c2)C(F)(F)F)cc1Br (stereo not shown) [AC32] | A (50-100)
8 | O=C(CC(F)(F)F)NCc1ccc(/C=C/C(c2cc(Cl)c(Cl)c(Cl)c2)C(F)(F)F)cc1Br (stereo not shown) [CC25] | A (50-100)
9 | Cc1cc(/C=C/C(c2cc(Cl)cc(Cl)c2)C(F)(F)F)ccc1C(=O)NCC(=O)NC1CSC1 (stereo not shown) [AC41] | A (50-100)
10 | Cc1cc(/C=C/C(c2cc(Cl)cc(Cl)c2)C(F)(F)F)ccc1C(=O)NCc1cncnc1 (stereo not shown) [AC39, 4-((E)-3-(3,5-Dichlorophenyl)-4,4,4-trifluorobut-1-enyl)-2-methyl-N-((pyrimidin-5-yl)methyl)benzamide] | A (50-100)
11 | C=CCNC(=S)NCc1ccc(/C=C/C(c2cc(Cl)c(Cl)c(Cl)c2)C(F)(F)F)cc1Cl (stereo not shown) [CC38] | A (50-100)
12 | O=C(NCc1ncc(/C=C/C(c2cc(Cl)c(Cl)c(Cl)c2)C(F)(F)F)cc1Cl)C1CC1 (stereo not shown) [CC45] | A (50-100)
13 | CC(=O)Nc1ncn(-c2ccc(/C=C/C(c3cc(Cl)cc(Cl)c3)C(F)(F)F)cc2C#N)n1 (stereo not shown) [DC39] | A (50-100)
14 | Cc1cc(/C=C/C(c2cc(Cl)cc(Cl)c2)C(F)(F)F)ccc1C(=O)NCc1ccc(Cl)cc1 (stereo not shown) [AC48] | A (50-100)
15 | Cc1cc(/C=C/C(c2cc(Cl)cc(Cl)c2)C(F)(F)F)ccc1C(=O)NCc1ccccn1 (stereo not shown) [AC12] | A (50-100)
16 | Fc1cc(/C=C/C(c2cc(Cl)cc(Cl)c2)C(F)(F)F)ccc1-n1cncn1 (stereo not shown) [DC48] | A (50-100)
17 | Cc1cc(/C=C\C(c2cc(Cl)cc(Cl)c2)C(F)(F)F)ccc1C(=O)NCC(=O)NC1CC1 (stereo not shown) [AC93] | A (50-100)
18 | O=C(CNC(=O)c1ccc(/C=C/C(c2cc(Cl)c(Cl)c(Cl)c2)C(F)(F)F)cc1Br)NCC(F)(F)F (stereo not shown) [AC66] | A (50-100)
19 | N#Cc1cc(/C=C/C(c2cc(Cl)c(Cl)c(Cl)c2)C(F)(F)F)ccc1-n1cnc(N(C(=O)C2CC2)C(=O)C2CC2)n1 (stereo not shown) [DC42, (E)-N-(1-(2-Cyano-4-(4,4,4-trifluoro-3-(3,4,5-trichlorophenyl)but-1-en-1-yl)phenyl)-1H-1,2,4-triazol-3-yl)-N-(cyclopropanecarbonyl)cyclopropanecarboxamide] | A (50-100)
20 | O=C(NCc1ccc(/C=C/C(c2cc(Cl)cc(Cl)c2)C(F)(F)F)cc1C(F)(F)F)C1CC1 (stereo not shown) [CC21] | A (50-100)
21 | Fc1ccc(C(/C=C/c2ccc(-n3cncn3)cc2)C(F)(F)F)cc1 (stereo not shown) [DC7] | A (50-100)
22 | O=C(NC1CSC1)c1ccc(/C=C/C(c2cc(Cl)c(F)c(Cl)c2)C(F)(F)F)cc1F (stereo not shown) [AC67] | A (50-100)
23 | O=C(NC1CCc2cc(/C=C/C(c3cc(Cl)c(Cl)c(Cl)c3)C(F)(F)F)ccc21)C1CC1 (stereo not shown) [BC6] | A (50-100)
24 | Cc1cc(/C=C/C(c2cc(Cl)cc(Cl)c2)C(F)(F)F)ccc1C(=O)NCc1cnc(Cl)s1 (stereo not shown) [AC15] | A (50-100)
25 | O=C(NCCc1ccc(Cl)nc1)c1ccc(/C=C/C(c2cc(Cl)c(Cl)c(Cl)c2)C(F)(F)F)cc1Br (stereo not shown) [AC113] | B (More than 0-Less than 50)
26 | Cc1cc(/C=C/C(c2cc(Cl)cc(Cl)c2)C(F)(F)F)ccc1C(=O)NCc1ccoc1 (stereo not shown) [AC20] | A (50-100)
27 | O=C(NNc1ccc(/C=C/C(c2cc(Cl)c(Cl)c(Cl)c2)C(F)(F)F)cc1)C1CC1 (stereo not shown) [CC50, (E)-N′-(4-(4,4,4-Trifluoro-3-(3,4,5-trichlorophenyl)but-1-en-1-yl)phenyl)cyclopropanecarbohydrazide] | A (50-100)
28 | Cc1cc(/C=C/C(c2cc(Cl)c(F)c(Cl)c2)C(F)(F)F)ccc1C(=O)NCc1ccc(Cl)nc1 (stereo not shown) [AC38] | A (50-100)

Row | Structure (SMILES) | BAW Rating
29 | CCc1cc(/C=C/C(c2cc(Cl)c(F)c(Cl)c2)C(F)(F)F)ccc1C(=O)NC1CS(=O)(=O)C1 (stereo not shown) [AC86] | A (50-100)
30 | O=C(NCc1ccc(/C=C/C(c2cc(Cl)c(Cl)c(Cl)c2)C(F)(F)F)cc1F)C1CC1 (stereo not shown) [CC28] | A (50-100)
31 | C=CCNC(=O)CNC(=O)c1ccc(/C=C/C(c2cc(Cl)c(Cl)c(Cl)c2)C(F)(F)F)cc1Br (stereo not shown) [AC111] | A (50-100)
32 | Cc1cc(/C=C/C(c2cc(Cl)c(F)c(Cl)c2)C(F)(F)F)ccc1C(=O)NCc1ccnc(Cl)c1 (stereo not shown) [AC54] | A (50-100)
33 | CC(C)(C)OC(=O)CNC(=O)c1ccc(/C=C/C(c2cc(Cl)c(Cl)c(Cl)c2)C(F)(F)F)cc1Br (stereo not shown) [AC58] | A (50-100)
34 | CN1CCC(NC(=O)c2ccc(/C=C/C(c3cc(Cl)c(Cl)c(Cl)c3)C(F)(F)F)cc2Br)CC1 (stereo not shown) [AC106, (E)-2-Bromo-N-(1-methylpiperidin-4-yl)-4-(4,4,4-trifluoro-3-(3,4,5-trichlorophenyl)but-1-en-1-yl)benzamide] | A (50-100)
35 | Cc1cc(/C=C/C(c2cc(Cl)cc(Cl)c2)C(F)(F)F)ccc1C(=O)NCc1ccccc1F (stereo not shown) [AC9] | A (50-100)
36 | O=C(NCc1ccc(/C=C/C(c2ccc(Cl)c(Cl)c2)C(F)(F)F)cc1Cl)C1CC1 (stereo not shown) [CC17] | A (50-100)
37 | Cc1cc(/C=C/C(c2cc(Cl)cc(Cl)c2)C(F)(F)F)ccc1C(=O)NCc1ncccn1 (stereo not shown) [AC18] | A (50-100)
38 | O=C(CC(F)(F)F)NCC(=O)n1ccc2cc(/C=C/C(c3cc(Cl)c(F)c(Cl)c3)C(F)(F)F)ccc21 (stereo not shown) [BC13, (E)-N-(2-(5-(3-(3,5-Dichloro-4-fluorophenyl)-4,4,4-trifluorobut-1-en-1-yl)-1H-indol-1-yl)-2-oxoethyl)-3,3,3-trifluoropropanamide] | A (50-100)
39 | CN(C)C(=O)NCc1ccc(/C=C/C(c2cc(Cl)c(Cl)c(Cl)c2)C(F)(F)F)cc1Cl (stereo not shown) [CC36, (E)-3-(2-Chloro-4-(4,4,4-trifluoro-3-(3,4,5-trichlorophenyl)but-1-en-1-yl)benzyl)-1,1-dimethylurea] | A (50-100)
40 | COc1cc(/C=C/C(c2cc(Cl)c(F)c(Cl)c2)C(F)(F)F)ccc1C(=O)NC1CSC1 (stereo not shown) [AC71] | A (50-100)
41 | CS(=O)(=O)CCC(=O)NCc1ccc(/C=C/C(c2cc(Cl)c(Cl)c(Cl)c2)C(F)(F)F)cc1Cl (stereo not shown) [CC30, (E)-N-(2-Chloro-4-(4,4,4-trifluoro-3-(3,4,5-trichlorophenyl)but-1-en-1-yl)benzyl)-3-(methylsulfonyl)propanamide] | A (50-100)
42 | FC(F)(F)C(/C=C/c1ccc(-n2cncn2)cc1)c1ccccc1 (stereo not shown) [DC3] | B (More than 0-Less than 50)
43 | O=C(CC(F)(F)F)NCc1ccc(/C=C/C(c2cc(Cl)c(Cl)c(Cl)c2)C(F)(F)F)cc1 (stereo not shown) [CC6] | A (50-100)
44 | O=C(CNC(=O)c1ccc(/C=C/C(c2cc(Cl)cc(Cl)c2)C(F)(F)F)cc1F)NCC(F)(F)F (stereo not shown) [AC62] | A (50-100)
45 | O=C(NCc1ccc(/C=C/C(c2cc(Cl)cc(Cl)c2)C(F)(F)F)cc1Cl)C1CC1 (stereo not shown) [CC8] | A (50-100)
46 | Cc1cc(/C=C/C(c2cc(Cl)cc(Cl)c2)C(F)(F)F)ccc1C(=O)N(C)Cc1ccc(Cl)nc1 (stereo not shown) [AC117] | A (50-100)
47 | FC(F)(F)C(/C=C/c1ccc(-n2cncn2)cc1Cl)c1cc(Cl)cc(Cl)c1 (stereo not shown) [DC67] | A (50-100)
48 | Cc1cc(/C=C/C(c2cc(Cl)cc(Cl)c2)C(F)(F)F)ccc1C(=O)NCc1ccc(Cl)nc1 (stereo not shown) [AC7] | A (50-100)
49 | O=C(CC(F)(F)F)NCc1ccc(/C=C/C(c2cc(Cl)c(Cl)c(Cl)c2)C(F)(F)F)cc1F (stereo not shown) [CC27] | A (50-100)
50 | Fc1cc(F)cc(C(/C=C/c2ccc(-n3cncn3)cc2)C(F)(F)F)c1 (stereo not shown) [DC8] | A (50-100)
51 | CCNC(=S)NCc1ccc(/C=C/C(c2cc(Cl)c(Cl)c(Cl)c2)C(F)(F)F)cc1Cl (stereo not shown) [CC37, (E)-1-(2-Chloro-4-(4,4,4-trifluoro-3-(3,4,5-trichlorophenyl)but-1-en-1-yl)benzyl)-3-ethylthiourea] | A (50-100)
52 | FC(F)(F)C(/C=C/c1ccc(CNc2ccccn2)c(Cl)c1)c1cc(Cl)c(Cl)c(Cl)c1 (stereo not shown) [CC43, (E)-N-(2-Chloro-4-(4,4,4-trifluoro-3-(3,4,5-trichlorophenyl)but-1-en-1-yl)benzyl)pyridin-2-amine] | A (50-100)
53 | O=C(NCc1ccc(/C=C/C(c2cc(Cl)c(Cl)c(Cl)c2)C(F)(F)F)cc1Cl)C1CC1 (stereo not shown) [CC11] | A (50-100)
54 | FC(F)(F)C(/C=C/c1ccc(-n2cncn2)c(Cl)c1)c1cc(Cl)c(Cl)c(Cl)c1 (stereo not shown) [DC49] | A (50-100)
55 | O=C(NCc1ccc(/C=C/C(c2cc(Cl)cc(Cl)c2)C(F)(F)F)cc1)C1CC1 (stereo not shown) [CC2] | A (50-100)
